Measurements: ChEMBL document CHEMBL3244128, “Aromatic esters of nonquaternary carbon-4 piperidinols as analgesics” (J Med Chem, 1978)
Activity calls are given as the source filed them. The calls are words filed in the database; no cut-off is given here.

Legend:
Mus musculus [1] = experiment: Analgesic activity in sc dosed mouse by hot-plate method; type: functional
Mus musculus [2] = experiment: Analgesic activity in sc dosed mouse by Nilsen method; type: functional
Mus musculus [3] = experiment: Analgesic activity in mouse at 20 mg/kg, sc by hot-plate method; type: functional, organism-based; design: dose 20 mg/kg
Mus musculus [4] = experiment: Analgesic activity in mouse at 20 mg/kg, sc by Nilsen method; type: functional, organism-based; design: dose 20 mg/kg
Mus musculus [5] = experiment: Toxicity in mouse at 20 mg/kg, sc; type: organism-based; design: dose 20 mg/kg, route subcutaneous; details: in vivo
Mus musculus [6] = experiment: Analgesic activity in mouse at 50 mg/kg, sc by hot-plate method; type: functional, organism-based; design: dose 50 mg/kg
Mus musculus [7] = experiment: Toxicity in mouse at 1.56 to 25 mg/kg, sc; type: organism-based; design: dose 1.56-25 mg/kg, route subcutaneous; details: in vivo
Mus musculus [8] = experiment: Toxicity in mouse at 54.5 mg/kg, sc; type: organism-based; design: dose 54.5 mg/kg, route subcutaneous; details: in vivo
Mus musculus [9] = experiment: Toxicity in mouse at 1.25 to 20 mg/kg, sc; type: organism-based; design: dose 1.25-20 mg/kg, route subcutaneous; details: in vivo
Mus musculus [10] = experiment: Toxicity in mouse at 5 to 40 mg/kg, sc; type: organism-based; design: dose 5-40 mg/kg, route subcutaneous; details: in vivo
Rhesus monkey [11] = experiment: Toxicity in monkey assessed as morphine-like physical dependence liability at 2 to 4 mg/kg; type: organism-based, Macaca mulatta; design: dose 2-4 mg/kg; details: in vivo
Rhesus monkey [12] = experiment: Toxicity in nonwithdrawn monkey assessed as nausea at 4 mg/kg; type: organism-based, Macaca mulatta; design: dose 4 mg/kg; details: in vivo
Rhesus monkey [13] = experiment: Toxicity in nonwithdrawn monkey assessed as nausea and piloerection at 8 mg/kg; type: organism-based, Macaca mulatta; design: dose 8 mg/kg; details: in vivo
Rhesus monkey [14] = experiment: Toxicity in nonwithdrawn monkey assessed as precipitation of abstinence sign at 8 mg/kg; type: organism-based, Macaca mulatta; design: dose 8 mg/kg; details: in vivo
Rhesus monkey [15] = experiment: Toxicity in nonwithdrawn monkey assessed as convulsion at 16 mg/kg up to 5 mins; type: organism-based, Macaca mulatta; design: dose 16 mg/kg; details: in vivo
Rhesus monkey [16] = experiment: Toxicity in nonwithdrawn monkey assessed as retching, vomiting and preconvulsive appearance at 16 mg/kg up to 5 mins; type: organism-based, Macaca mulatta; design: dose 16 mg/kg; details: in vivo
[17] = biological target: Opioid receptor (Rattus norvegicus) (UniProt P33533+P34975+P33535); experiment: Displacement of [3H]dihydromorphine from opiate receptor in rat brain homogenates; type: tissue-based
Opioid receptor (Rattus norvegicus), sequence (P33533 whole entry, looked up): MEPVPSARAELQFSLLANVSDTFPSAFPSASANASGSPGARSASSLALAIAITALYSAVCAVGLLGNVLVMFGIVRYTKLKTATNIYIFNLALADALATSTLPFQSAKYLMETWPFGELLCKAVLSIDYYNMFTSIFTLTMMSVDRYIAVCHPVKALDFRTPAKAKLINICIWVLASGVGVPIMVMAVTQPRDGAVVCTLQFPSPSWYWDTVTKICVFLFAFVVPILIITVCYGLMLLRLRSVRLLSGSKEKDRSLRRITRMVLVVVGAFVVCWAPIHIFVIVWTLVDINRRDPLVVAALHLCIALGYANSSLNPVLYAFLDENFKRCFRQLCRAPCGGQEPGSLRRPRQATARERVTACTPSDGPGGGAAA
Opioid receptor (Rattus norvegicus), sequence (P33535 whole entry, looked up): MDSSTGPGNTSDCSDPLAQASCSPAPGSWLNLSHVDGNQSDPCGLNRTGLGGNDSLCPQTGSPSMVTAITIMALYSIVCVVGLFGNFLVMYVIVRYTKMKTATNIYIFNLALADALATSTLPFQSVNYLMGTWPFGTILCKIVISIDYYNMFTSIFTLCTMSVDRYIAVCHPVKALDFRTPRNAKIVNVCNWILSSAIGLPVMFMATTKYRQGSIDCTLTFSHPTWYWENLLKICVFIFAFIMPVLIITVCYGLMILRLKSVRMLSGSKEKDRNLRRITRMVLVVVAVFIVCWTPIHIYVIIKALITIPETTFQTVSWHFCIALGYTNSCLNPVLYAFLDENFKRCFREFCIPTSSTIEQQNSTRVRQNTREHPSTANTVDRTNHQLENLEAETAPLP
Opioid receptor (Rattus norvegicus), sequence (P34975 whole entry, looked up): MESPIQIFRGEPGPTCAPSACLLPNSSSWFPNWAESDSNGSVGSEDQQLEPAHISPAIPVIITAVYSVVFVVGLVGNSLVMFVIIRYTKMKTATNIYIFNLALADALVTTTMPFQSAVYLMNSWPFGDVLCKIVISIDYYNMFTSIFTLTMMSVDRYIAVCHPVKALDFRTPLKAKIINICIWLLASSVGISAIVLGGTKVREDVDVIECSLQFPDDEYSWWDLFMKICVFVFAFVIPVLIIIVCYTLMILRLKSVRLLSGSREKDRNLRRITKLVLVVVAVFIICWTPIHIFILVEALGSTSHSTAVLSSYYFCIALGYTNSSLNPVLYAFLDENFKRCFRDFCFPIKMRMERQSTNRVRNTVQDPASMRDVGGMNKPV

SMILES | ED50 (Mus musculus [1]) | other results
Cc1[nH]c(C)c(C(=O)OC2CCN(C)CC2)c1C | 4.9 mg/kg | ED50 (Mus musculus [2]): 7.1 mg/kg
Cc1ccc(C(=O)OC2CCN(C)CC2)cc1F | 13.9 mg/kg | 
COc1cccc(OC)c1C(=O)OC1CCN(C)CC1 | 73.8 mg/kg | 
CCOc1ccccc1C(=O)OC1CCN(C)CC1 |  | Analgesic activity (active/inactive) (Mus musculus [3]): Active
CN1CCC(OC(=O)c2cccc(F)c2)CC1 | 15.1 mg/kg | 
CCOC(=O)[C@H]1CN(C)CC[C@@H]1OC(=O)c1ccc(OC)c(OC)c1 (relative stereo) | 11.8 mg/kg | 
CN1CCC(OC(=O)c2cc(I)cc(I)c2I)CC1 | inactive | 
Cc1cc(C)cc(C(=O)OC2CCN(C)CC2)c1 | 24.4 mg/kg | 
CCOC(=O)[C@@H]1CN(C)CC[C@@H]1OC(=O)c1ccc(OC)c(OC)c1 (relative stereo) | 4 mg/kg | ED50 (Mus musculus [4]): Active; Activity (Mus musculus [5]): Toxic
COc1cc(OC)c(C(=O)OC2CCN(C)CC2)c(OC)c1 | 11.6 mg/kg | 
COc1cccc(C(=O)OC2CCN(C)CC2)c1OC | 8.9 mg/kg | ED50 (Mus musculus [2]): 19.6 mg/kg
CN1CCC(OC(=O)c2ccccc2F)CC1 | 10.6 mg/kg | 
CN1CCC(OC(=O)c2ccccc2Oc2ccccc2)CC1 |  | Analgesic activity (active/inactive) (Mus musculus [3]): Active
CN1CCC(OC(=O)c2ccc(F)cc2)CC1 | 11.5 mg/kg | 
Cc1ccccc1C(=O)OC1CCN(C)CC1 | 8.9 mg/kg | 
COc1ccc(CCC(=O)OC2CCN(C)CC2)cc1OC | 30.7 mg/kg | ED50 (Mus musculus [2]): 32 mg/kg
CN1CCC(OC(=O)/C=C/c2ccccc2)CC1 | 16.2 mg/kg | 
Cc1cccc(C(=O)OC2CCN(C)CC2)c1 | inactive | 
CN1CCC(OC(=O)Cc2ccccc2)CC1 | inactive | 
Cc1ccc(C(=O)OC2CCN(C)CC2)cc1C |  | Analgesic activity (active/inactive) (Mus musculus [3]): Active
COc1cc(C(=O)OC2CCN(C)CC2)ccc1C | 11.9 mg/kg | 
Cc1cccc(C)c1C(=O)OC1CCN(C)CC1 | 15.2 mg/kg | 
COc1ccc(C(=O)OC2CCN(C)CC2)cc1 | 10.5 mg/kg | 
CN1CCC(OC(=O)c2cccc(O)c2)CC1 | 16.6 mg/kg | 

SMILES | ED50 (Mus musculus [1]) | other results
CN1CCC(OC(=O)C2c3ccccc3-c3ccccc32)CC1 | inactive | 
COc1ccccc1C(=O)OC1CCN(C)CC1 | 10.6 mg/kg | 
Cc1cc(C)c(C(=O)OC2CCN(CCc3ccccc3)CC2)c(C)c1 | 37 mg/kg | 
COc1cc(C(=O)OC2CCN(C)CC2)cc(OC)c1OC | 15.4 mg/kg | 
COc1cc(OC)cc(C(=O)OC2CCN(C)CC2)c1 | 9.3 mg/kg | 
CN1CCC(OC(=O)c2ccccc2CCc2ccccc2)CC1 |  | ED50 (Mus musculus [6]): Active
CN1CCC(OC(=O)c2ccc3c(c2)OCO3)CC1 | 7.3 mg/kg | 
Cc1cc(C)c(C(=O)OC2CCN(C)CC2)c(C)c1 | 8.3 mg/kg | ED50 (Mus musculus [2]): 46 mg/kg
COc1ccc(C(=O)OC2CCN(C)CC2)cc1OC | 3.9 mg/kg | ED50 (Mus musculus [2]): 13.1 mg/kg; Activity (Mus musculus [7]): Non-toxic; Activity (Mus musculus [8]): Non-toxic; Activity (Mus musculus [9]): Non-toxic; Activity (Mus musculus [10]): Non-toxic; Activity (Rhesus monkey [11]): Non-toxic; Activity (Rhesus monkey [12]): Toxic; Activity (Rhesus monkey [13]): Toxic; Activity (Rhesus monkey [14]): Non-toxic; Activity (Rhesus monkey [15]): Toxic; Activity (Rhesus monkey [16]): Toxic
Cc1ccc(C(=O)OC2CCN(C)CC2)cc1 | 18.2 mg/kg | 
CN1CCC(OC(=O)CCCc2ccccc2)CC1 | inactive | 
COc1ccc2c3c1O[C@H]1[C@@H](O)C=C[C@H]4[C@@H](C2)N(C)CC[C@@]341 [CODEINE] | 7.5 mg/kg | ED50 (Mus musculus [2]): 4.5 mg/kg
COc1ccc(C(=O)O[C@H]2CCN(C)C[C@@H]2C)cc1OC | 8.3 mg/kg | K [17]: > 100 µM
COc1ccc(C(=O)O[C@H]2CCN(C)C[C@H]2C)cc1OC (relative stereo) |  | Analgesic activity (active/inactive) (Mus musculus [3]): Active; K [17]: > 100 µM
CN1CCC(OC(=O)C23CC4CC(CC(C4)C2)C3)CC1 | 15.9 mg/kg | 
COc1cccc(C(=O)OC2CCN(C)CC2)c1 | 6.1 mg/kg | Activity (Mus musculus [7]): Non-toxic; Activity (Mus musculus [8]): Non-toxic
CN1CC[C@]23c4c5ccc(O)c4O[C@H]2[C@@H](O)C=C[C@H]3[C@H]1C5 [MORPHINE] | 1.2 mg/kg | ED50 (Mus musculus [2]): 0.8 mg/kg
CN1CCC(OC(=O)c2ccccc2)CC1 | 9.6 mg/kg | 
CC(C(=O)OC1CCN(C)CC1)c1ccccc1 (stereo unspecified) | 25.4 mg/kg | 
Cc1cc(C)c(C(=O)OC2CCN(C)CC2)cc1C | 20 mg/kg | 
Cc1ccc(C)c(C(=O)OC2CCN(C)CC2)c1 | 12.5 mg/kg | 
CCC(=O)OC1CCN(C)CC1 | 20.2 mg/kg | 
CN1CCC(OC(=O)c2ccc(C(C)(C)C)cc2)CC1 | 23.3 mg/kg | 
CN1CCC(OC(=O)c2ccc(Cl)c(Cl)c2)CC1 | 27.1 mg/kg | 
